This note sets out measurements from ChEMBL document CHEMBL1649448, “Atorvastatin is a promising partner for antimalarial drugs in treatment of Plasmodium falciparum malaria” (Antimicrob Agents Chemother, 2009).

Structures are written as SMILES.

Holding throughout (format): functional, organism-based
The test system of assay [1] is Plasmodium falciparum. In words: Antimalarial activity against Plasmodium falciparum 106/1 assessed as incorporation of [3H]hypoxanthine after 48 hrs by scintillation counter.
Assay [2] deals with Plasmodium falciparum. Put plainly: Antimalarial activity against Plasmodium falciparum FCR3 assessed as incorporation of [3H]hypoxanthine after 48 hrs by scintillation counter.
The test system of assay [3] is Plasmodium falciparum. In words: Antimalarial activity against Plasmodium falciparum IMT 8425 harboring Ppcrt I371R mutant gene and Pfnhe-1 ms4760 microsatellite mutant assessed as incorporation of [3H]hypoxanthine after 48 hrs by scintillation counter.
In assay [4] the test system is Plasmodium falciparum. Put plainly: Antimalarial activity against Plasmodium falciparum IMT L1 assessed as incorporation of [3H]hypoxanthine after 48 hrs by scintillation counter.
Assay [5] deals with Plasmodium falciparum. In words: Antimalarial activity against Plasmodium falciparum IMT Bres harboring Ppcrt M74I, N75E, K76T, A220S, Q271E, N326S and I356T mutant gene, Pmdr1 N86Y mutant gene and Pfmrp H191Y and S437A mutant gene assessed as incorporation of [3H]hypoxanthine after 48 hrs by scintillation counter.
Assay [6] concerns Plasmodium falciparum. Put plainly: Antimalarial activity against Plasmodium falciparum IMT A4 assessed as incorporation of [3H]hypoxanthine after 48 hrs by scintillation counter.
The subject of assay [7] is Plasmodium falciparum. Put plainly: Antimalarial activity against Plasmodium falciparum IMT Vol assessed as incorporation of [3H]hypoxanthine after 48 hrs by scintillation counter.
Assay [8] deals with Plasmodium falciparum. In words: Antimalarial activity against Plasmodium falciparum IMT 10336 assessed as incorporation of [3H]hypoxanthine after 48 hrs by scintillation counter.
For assay [9], the system named is Plasmodium falciparum. In words: Antimalarial activity against Plasmodium falciparum IMT 10336 harboring Pfcrt Q271E mutant gene and Ppcrt I371R mutant gene assessed as incorporation of [3H]hypoxanthine after 48 hrs by scintillation counter.
For assay [10], the system named is Plasmodium falciparum. In words: Antimalarial activity against Plasmodium falciparum IMT K2 assessed as incorporation of [3H]hypoxanthine after 48 hrs by scintillation counter.
In assay [11] the test system is Plasmodium falciparum. In words: Antimalarial activity against Plasmodium falciparum W2 harboring Ppcrt M74I, N75E, K76T, A220S, Q271E, N326S and I356T mutant gene, Pmdr1 N86Y mutant gene and Pfmrp H191Y and S437A mutant gene assessed as incorporation of [[3H]hypoxanthine after 48 hrs by scintillation counter.

Consider `CC(C)c1c(C(=O)Nc2ccccc2)c(-c2ccccc2)c(-c2ccc(F)cc2)n1CC[C@@H](O)C[C@@H](O)CC(=O)O` [ATORVASTATIN], for which the 50% inhibitory concentration (IC50) in the assay with Plasmodium falciparum [1] is 2500 nM; with Plasmodium falciparum [2], 2500 nM; in the assay on Plasmodium falciparum [3], 9700 nM; with Plasmodium falciparum [4] it was 2500 nM; in the assay on Plasmodium falciparum [5] it was 5800 nM; in the assay with Plasmodium falciparum [6], 2500 nM. In addition, the concentration for half-maximal inhibition (IC50) was 2500 nM in the assay with Plasmodium falciparum [7]; 2500 nM in the assay with Plasmodium falciparum [8]; 6900 nM in the assay with Plasmodium falciparum [9]; 2500 nM with Plasmodium falciparum [10]; 5900 nM in the assay with Plasmodium falciparum [11].

Broadly, the IC50 is the concentration that gives 50% inhibition.
